Assay results published in patent US20110059033A1, “ULTRAVIOLET ABSORBING COMPOSITION” (FUJIFILM Corporation, priority 2009, published 2011).

Assay: Maximum absorption wavelength (λmax) of the illustrative compounds in solvent
Type: physicochemical
Conditions: EtOAc

SMILES	maximum absorption wavelength (λmax) [nm]
CCCCC(CC)C(=O)Oc1ccc(OC(=O)C(CC)CCCC)c2c1SC(=C(C#N)C(=O)C(C)(C)C)S2 (stereo not drawn) [S-01]	375
CCCCC(CC)COc1ccc(OCC(CC)CCCC)c2c1SC(=C(C#N)C(=O)C(C)(C)C)S2 (stereo not drawn) [S-06]	382
CCCCC(CC)C(=O)Oc1ccc(OC(=O)C(CC)CCCC)c2c1SC(=C(C#N)C#N)S2 (stereo not drawn) [S-17]	363
CCCCC(CC)C(=O)Oc1ccc(OC(=O)C(CC)CCCC)c2c1SC(=C(C#N)C(N)=O)S2 (stereo not drawn) [S-20]	357
CCCCC(CC)COc1ccc(OCC(CC)CCCC)c2c1SC(=C(C#N)C#N)S2 (stereo not drawn) [S-26]	369
CC(CCOc1ccc(OCCC(C)CC(C)(C)C)c2c1SC(=C(C#N)C#N)S2)CC(C)(C)C (stereo not drawn) [S-27]	369
CC(CCOc1ccc(OCCC(C)CC(C)(C)C)c2c1SC(=C(C#N)C(=O)C(C)(C)C)S2)CC(C)(C)C (stereo not drawn) [S-28]	382
CC(C)(C)C(=O)C(C#N)=C1Sc2c(OCCO)ccc(OCCO)c2S1 [S-29]	382

Same assay, conditions: MeOH

SMILES	maximum absorption wavelength (λmax) [nm]
N#CC(C#N)=C1Sc2c(OCCO)ccc(OCCO)c2S1 [S-30]	369
